Converted amounts (≈) assume the structure as drawn. Read-outs that look alike come from different tables or passages of the source. Starred links: 1 amine or outer side, 2 acyl side, 3 side chain; linkers in the order of their positions; H or OH if unused. Positions of bridges follow the written chain, without caps; N, C: chain ends. Non-standard residues stand in square brackets, D forms with d. Residues, ends and D or L forms follow the SMILES beside them. *: point of attachment. X3 = CN(CCCCC(=O)N[C@@H](CS[*:2])C(=O)[*:1])[*:3]; Trp(7-Me) = Cc1cccc2c(C[C@H](N)C(=O)O)c[nH]c12; X1 = O=C(CCCCN[*:3])N[C@@H](CS[*:2])C(=O)[*:1]; 2Nal = N[C@@H](Cc1ccc2ccccc2c1)C(=O)O; AEF = NCCOc1ccc(C[C@H](N)C(=O)O)cc1; 3Pal = N[C@@H](Cc1cccnc1)C(=O)O; αMeL = CC(C)C[C@](C)(N)C(=O)O; Thp = NC1(C(=O)O)CCOCC1; Me2NCH2CH2 = CN(C)CC*; Aib = CC(C)(N)C(=O)O; Ava = NCCCCC(=O)O; βAla = NCCC(=O)O; Sar = CNCC(=O)O
How the values were obtained:
[1] = target: T1, human interleukin-23 receptor (recombinant human IL-23R-Fc chimera) (Homo sapiens, UniProt Q5VWK5); test: Human ELISA IL23/IL23R (assay for specific human IL23R antagonists); format: binding; conditions: Table 10; read-out: Human ELISA IL23/IL23R IC50
T1 construct: Fc (IgG Fc fusion)
Procedure, shortened: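 Plates coated overnight at 4 °C with human IL23 ([…]), blocked, then serially diluted peptides added with recombinant human IL-23R-Fc (0.1 μg/ml final) for 60 min at room temperature. Bound receptor detected with anti-human IgG1-HRP and fluorogenic peroxidase substrate.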

[2] = test system: IL-23 induced STAT3 signaling in HEK-Blue™ IL-23 cells; test: IL-23 induced STAT3 signaling in HEK-Blue IL-23 cells (SEAP reporter); format: cell-based; conditions: human IL23 0.25 ng/ml, read-out: pSTAT3
Procedure, shortened: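 HEK-Blue IL-23 cells (10,000/well) pre-incubated 60 min at 37 °C with serially diluted peptides, then stimulated overnight with human IL-23 (0.25 ng/ml final). STAT3-driven SEAP in supernatant detected with QUANTI-Blue after 45 min at RT (OD 620-655 nm); dose-response curves fitted.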

[3] = Solubility testing of peptides at different pH; format: physicochemical; conditions: target concentration 1 mg/ml, 2 hours agitation
Procedure, shortened: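 Solid obtained by drying down DMSO stock was taken up at 1 mg/mL in 50 mM HCl pH 1.2 or 50 mM phosphate pH 6.5, 7.4 or 9.0, agitated gently for 2 h, then filtered (0.45 μm). Solubility by UPLC-UV peak area against a DMSO reference standard curve, corrected for extinction coefficients.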

[4] = Chemical stability assessment of peptides (relative purity loss); format: physicochemical; conditions: 24 hours at 37° C.; for Chemical stability (relative purity loss) Buffer pH 1.2: 50 mM HCl pH 1.2 + acetonitrile (1:1); for Chemical stability (relative purity loss) Buffer pH 6.5: 50 mM phosphate buffer pH 6.5 + acetonitrile (1:1); for Chemical stability (relative purity loss) Buffer pH 7.4: 50 mM phosphate buffer pH 7.4 + acetonitrile (1:1)
Procedure, shortened: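 Peptide solutions at 1 mg/ml (purity-corrected) in 1:1 acetonitrile with 50 mM HCl pH 1.2, or 50 mM phosphate pH 6.5 or pH 7.4, held 24 hours at 2° C. and 37° C. Supernatants analysed by UHPLC-UV; relative purity loss taken as percent drop in peak-area purity from 0 to 24 hours at 37° C.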

Pancreatin = test: Protease stability in simulated intestinal fluid (Pancreatin-SIF, FaSSIF); format: in vitro ADME; conditions: 1 μM peptide, 37° C.; for remaining at 1 h, 1 µM: 60 min, read-out: FaSSIF 60 (min), remaining percent of peptide; for remaining at 2 h, 1 µM: 120 min, read-out: FaSSIF 120 (min), remaining percent of peptide; for remaining at 4 h, 1 µM: 240 min, read-out: FaSSIF 240 (min), remaining percent of peptide
Procedure, shortened: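 Peptide (1 μM final) was incubated at 37° C in simulated intestinal fluid containing pancreatin (1 mg per 10 mL SIF concentrate). Samples were quenched with ethanol/0.1% HCOOH at 0, 60, 120 and 240 min and analysed by LC-MS/MS. Percent remaining is the peak area relative to time 0 (100%).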

[5] = 50 mM HCl buffer, 50 mM HCl pH 1.2, read-out: Solubility Buffer pH 1.2
[6] = 50 mM phosphate buffer pH 6.5, read-out: Solubility Buffer pH 6.5
[7] = 50 mM phosphate buffer pH 7.4, read-out: Solubility Buffer pH 7.4
[8] = 50 mM phosphate buffer pH 9.0, read-out: Solubility Buffer pH 9.0

Structure (SMILES) | IC50 [1] [nM] | solubility at 2 h [3, 5] [µg/mL] | solubility at 2 h [3, 6] [µg/mL] | solubility at 2 h [3, 7] [µg/mL] | solubility at 2 h [3, 8] [µg/mL] | Chemical stability (relative purity loss) Buffer pH 1.2 [4] [%] | Chemical stability (relative purity loss) Buffer pH 6.5 [4] [%] | Chemical stability (relative purity loss) Buffer pH 7.4 [4] [%] | remaining at 1 h, 1 µM (Pancreatin) [%] | remaining at 2 h, 1 µM (Pancreatin) [%] | remaining at 4 h, 1 µM (Pancreatin) [%] | IC50 [2] [nM]
Cc1cccc2c(C[C@@H]3NC(=O)[C@H]([C@@H](C)O)NC(=O)[C@H](CC(N)=O)NC(=O)[C@@H]4CSSC[C@H](NC(=O)[C@H](CC(C)C)NC3=O)C(=O)N[C@@H](Cc3ccc(OCCN(C)C)cc3)C(=O)N[C@@H](Cc3ccc5ccccc5c3)C(=O)NC3(CCOCC3)C(=O)N[C@H](C(=O)N[C@@H](CC(N)=O)C(=O)N[C@@H](Cc3cccnc3)C(=O)N(C)CC(N)=O)CCC(=O)NCCCCC(=O)N4)c[nH]c12 [compound 24] ([Ava]CNT[Trp(7-Me)]LCY(Me2NCH2CH2)[2Nal][Thp]EN[3Pal][Sar]-NH2; disulfide 2-7; lactam N-11) | 0.4 | ≥ 1020 | ≥ 1100 | ≥ 1000 | 300 (≈ 162 µM) | 7.2 | 0.0 | 0.4 | 80 | 79 | 76 | 0.59
CC(=O)N[C@H]1CCCCNC(=O)[C@@H]2CSSC[C@H](NC(=O)[C@H](CCC(N)=O)NC(=O)[C@H](Cc3c[nH]c4ccccc34)NC1=O)C(=O)N[C@@H](Cc1ccc(OCCN)cc1)C(=O)N[C@@H](Cc1ccc3ccccc3c1)C(=O)N[C@@](C)(CC(C)C)C(=O)N[C@H](C(=O)N[C@@H](C)C(=O)NCC(N)=O)CCC(=O)N(C)CCCCC(=O)N2 [compound 18] (Ac-KWQC[AEF][2Nal][αMeL]EAG-NH2; linker 1-4-8 via X3) | 0.71 | 10 (≈ 6.29 µM) | < 10 | < 10 | < 10 | 11.4 | 0.1 | 0.0 | 81 | 76 | 76 | 69.5
CC(=O)N[C@H]1CCCCNC(=O)[C@@H]2CSSC[C@H](NC(=O)[C@H](CCC(N)=O)NC(=O)[C@H](Cc3c[nH]c4ccccc34)NC1=O)C(=O)N[C@@H](Cc1ccc(OCCN)cc1)C(=O)N[C@@H](Cc1ccc3ccccc3c1)C(=O)N[C@@](C)(CC(C)C)C(=O)N[C@H](C(=O)N[C@@H](CC(N)=O)C(=O)N[C@@H](CC(N)=O)C(N)=O)CCC(=O)N(C)CCCCC(=O)N2 [compound 14] (Ac-KWQC[AEF][2Nal][αMeL]ENN-NH2; linker 1-4-8 via X3) | 0.36 | 50 (≈ 29.6 µM) | 30 (≈ 17.8 µM) | 20 (≈ 11.8 µM) | < 10 | 25.8 | 0.6 | 0.1 | 83 | 68 | 49 | 18.7
CC(C)C[C@@H](NC(=O)[C@H](CC(N)=O)NC(=O)[C@@H]1CCC(=O)NCCCCC(=O)N[C@H]2CSSC[C@H](NC(=O)[C@H](CCC(N)=O)NC(=O)[C@H](Cc3c[nH]c4ccccc34)NC(=O)[C@H]([C@@H](C)O)NC(=O)[C@H](CC(N)=O)NC2=O)C(=O)N[C@@H](Cc2ccc(OCCN(C)C)cc2)C(=O)N[C@@H](Cc2ccc3ccccc3c2)C(=O)N[C@@](C)(CC(C)C)C(=O)N1)C(N)=O [compound 10] ([Ava]CNTWQCY(Me2NCH2CH2)[2Nal][αMeL]EN[dL]-NH2; disulfide 2-7; lactam N-11) | 0.58 | < 10 | 70 (≈ 40.1 µM) | 10 (≈ 5.72 µM) | < 10 | 6.7 | 0.1 | 0.4 | 84 | 81 | 80 | 25.8
COc1ccc(C[C@@H]2NC(=O)[C@@H]3CSSC[C@H](NC(=O)CCC(=O)NCCCC[C@@H](C(=O)N[C@@H](CC(N)=O)C(=O)N[C@@H](CC(N)=O)C(N)=O)NC(=O)C(C)(C)NC(=O)[C@H](Cc4ccc5ccccc5c4)NC2=O)C(=O)N[C@@H](CC(N)=O)C(=O)N[C@@H]([C@@H](C)O)C(=O)N[C@@H](Cc2c[nH]c4ccccc24)C(=O)N[C@@H](CCC(N)=O)C(=O)N3)cc1 [compound 11] | 0.7 | 120 (≈ 72.8 µM) | 100 (≈ 60.6 µM) | 90 (≈ 54.6 µM) | 80 (≈ 48.5 µM) | 25.7 | 0.2 | 1.0 | 80 | 76 | 65 | 53.5

Further lines, with some results ahead:

IC50 [1] [nM] | solubility at 2 h [3, 5] [µg/mL] | solubility at 2 h [3, 6] [µg/mL] | solubility at 2 h [3, 7] [µg/mL] | solubility at 2 h [3, 8] [µg/mL] | Chemical stability (relative purity loss) Buffer pH 1.2 [4] [%] | Chemical stability (relative purity loss) Buffer pH 6.5 [4] [%] | Chemical stability (relative purity loss) Buffer pH 7.4 [4] [%] | remaining at 1 h, 1 µM (Pancreatin) [%] | remaining at 2 h, 1 µM (Pancreatin) [%] | remaining at 4 h, 1 µM (Pancreatin) [%] | Structure (SMILES) | IC50 [2] [nM]
0.28 | ≥ 1060 | ≥ 1040 | ≥ 990 | ≥ 1040 | 12.5 | 1.3 | 2.8 | 80 | 80 | 76 | CC(=O)NCCCC[C@@H]1NC(=O)[C@H](Cc2c[nH]c3c(C)cccc23)NC(=O)[C@H]([C@@H](C)O)NC(=O)[C@H](CC(N)=O)NC(=O)[C@@H]2CSSC[C@H](NC1=O)C(=O)N[C@@H](Cc1ccc(OCCN(C)C)cc1)C(=O)N[C@@H](Cc1ccc3ccccc3c1)C(=O)NC(C)(C)C(=O)N[C@H](C(=O)N[C@@H](CC(N)=O)C(=O)N[C@@H](Cc1c[nH]cn1)C(=O)NCCC(N)=O)CCC(=O)NCCCCC(=O)N2 [compound 48] ([Ava]CNT[Trp(7-Me)]K(Ac)CY(Me2NCH2CH2)[2Nal][Aib]ENH[βAla]-NH2; disulfide 2-7; lactam N-11) | 0.6
0.56 | ≥ 1000 | ≥ 890 | 640 (≈ 386 µM) | 130 (≈ 78.4 µM) | 5.9 | 0.5 | 0.1 | 100 | 100 | 85 | CC(=O)N[C@H]1CCCCNC(=O)[C@@H]2CSSC[C@H](NC(=O)[C@H](CCC(N)=O)NC(=O)[C@H](Cc3c[nH]c4ccccc34)NC1=O)C(=O)N[C@@H](Cc1ccc(OCCN(C)C)cc1)C(=O)N[C@@H](Cc1ccc3ccccc3c1)C(=O)NC1(CCOCC1)C(=O)N[C@H](C(=O)N[C@@H](C)C(=O)N[C@H](CC(C)C)C(N)=O)CCC(=O)NCCCCC(=O)N2 [compound 33] (Ac-KWQCY(Me2NCH2CH2)[2Nal][Thp]EA[dL]-NH2; linker 1-4-8 via X1) | 53.8
0.32 | ≥ 1160 | ≥ 1060 | ≥ 1180 | 350 (≈ 189 µM) | 15.7 | 0.0 | 2.3 | 82 | 83 | 74 | CC(=O)NCCCC[C@@H]1NC(=O)[C@H](Cc2c[nH]c3c(C)cccc23)NC(=O)[C@H]([C@@H](C)O)NC(=O)[C@H](CC(N)=O)NC(=O)[C@@H]2CSSC[C@H](NC1=O)C(=O)N[C@@H](Cc1ccc(OCCN(C)C)cc1)C(=O)N[C@@H](Cc1ccc3ccccc3c1)C(=O)NC(C)(C)C(=O)N[C@H](C(=O)N[C@@H](CC(N)=O)C(=O)N[C@@H](Cc1c[nH]cn1)C(=O)N(C)CC(N)=O)CCC(=O)NCCCCC(=O)N2 [compound 45] ([Ava]CNT[Trp(7-Me)]K(Ac)CY(Me2NCH2CH2)[2Nal][Aib]ENH[Sar]-NH2; disulfide 2-7; lactam N-11) | 0.67

— patent US20260258084A1, “New Peptides as Selective IL-23 Receptor Antagonists” (Sanofi, priority 2022, published 2026)
